This passage reports Activity results from ChEMBL document CHEMBL1140790, “Determination of absolute stereochemistry, total synthesis, and evaluation of peptides from the myxomycete Physarum melleum” (Bioorg Med Chem Lett, 2008).

This assay is described as follows: Inhibition of Wnt signal activity by luciferase superTOP-Flash gene assay.

Calls of active or inactive are those of the source. The calls are words filed in the database; no cut-off is given here.

Turning to `COC(=O)C[C@H](O)[C@H](Cc1ccc(O)cc1)NC(=O)CNC(=O)[C@@H](NC(=O)c1ccc(OC)cc1)[C@@H](C)O`, the outcome was inactive. With `COC(=O)C[C@H](O)[C@H](Cc1ccc(O)cc1)NC(=O)CNC(=O)[C@H](NC(=O)c1ccc(OC)cc1)[C@@H](C)O` the entry was “Active”.
